Data on one molecule can be found in US10265321B2, “Uses of salt-inducible kinase (SIK) inhibitors” (Dana-Farber Cancer Institute, Inc., priority 2014, dated 2019).

Holding throughout (assay type): cell-based, mouse
In one series the test system is BMDCs. As to the kind of experiment: Cytokine (cytometric bead array) and NO (Greiss) production by stimulated BMDCs. On the procedure:
(§1) Bone marrow-derived DCs were differentiated from C57BL/6 bone marrow in the presence of GM-CSF-conditioned media. CD11c^+ CX3CR1^hi myeloid cells and CD11c^+ CX3CR1^− DCs were isolated from the small intestine lamina propria of Cx3cr1^eGFP/+ mice (12). Detection of cell-surface Thy1.1 expression on BMDCs from 10BiT reporter mice was conducted as described previously (24). Cell viability was estimated by change in total cellular ATP levels using CellTiterGlo assays (Promega). Preparation of recombinant SIK proteins and IC50 measurements were conducted as described previously (21). Total RNA was extracted using a NucleoSpin 96 RNA isolation kit (Macherey-Nagel) followed by cDNA synthesis and multiplex RT-PCR using a microfluidic dynamic array (Fluidigm). The concentrations of TNF-α, IL-6, IL-10, IL-12p40, IL-1β and RANTES in culture supernatants were detected using a FlexSet Cytometric bead array (BD Biosciences). Alternatively, IL-10 secretion was quantified using ELISA (BD Biosciences) or AlphaLISA (PerkinElmer) assays. NO production was estimated based on nitrate content in culture medium using the Greiss reagent.
C57BL/6 mice were euthanized and bone marrow harvested from femurs and tibias as described previously (Graham D B, et al. (2007) An ITAM-signaling pathway controls cross-presentation of particulate but not soluble antigens in dendritic cells. The Journal of experimental medicine 204(12):2889-2897). BMDCs were differentiated DMEM supplemented with 2 mM GlutaMAX, 10% (vol/vol) FBS, penicillin, streptomycin and 2% mouse GM-CSF conditioned media derived from TOPO cells. Cultures were differentiated for 7 days and routinely analyzed for >90% CD11c (APC anti-CD11c clone HL3; BD Biosciences) positivity by flow cytometry before use in experiments. Lentiviral transduction of bone marrow cultures was conducted by addition of 293T culture supernatants containing lentiviral particles encoding the CREB dependent luciferase reporter construct or CRTC3 targeting or control shRNAs one day post-isolation. Stable integration of lentiviral shRNA constructs was selected by addition of puromycin (3 μg/mL) on day 4 post-transduction. After 2 days, stably transduced BMDCs were released from selection and used in subsequent assays. Unless otherwise indicated, cells were treated for 2 days with PGE2 (5 μM) or HG-9-91-01 (0.5 μM) or an equivalent concentration of DMSO (≤0.5%) and then stimulated for 18 hr with LPS (100 ng/mL), R848 (10 μg/mL) or zymosan (4 μg/mL).
(§2) After stimulation of cells with microbial ligands, the culture medium was removed, clarified by centrifugation for 10 min at 14,000×g, and the concentration of TNF-α, IL-6, IL-10, IL-12p40, IL-1β and RANTES were measured using FlexSet Cytokine Bead Array (BD Biosciences) according to the manufacturer's instructions. Where indicated, ELISAs were used to detect IL-10 and IL-12p70 (BD Biosciences) according to the manufacturer's instructions. NO production was estimated based on nitrate content in culture medium using the Greiss reagent as described previously (Miletic A V, et al. (2007) Vav proteins control MyD88-dependent oxidative burst. Blood 109(8):3360-3368).

In series [1] the test system is naïve splenic CD4+ T cells differentiated to Treg or Tr1. As to the kind of experiment: Treg and Tr1 T cell differentiation, viability, FoxP3 staining and IL-10 ELISA. As for the experimental part: Balb/c mice were euthanized and splenic CD4+CD62L+ T cells were magnetically enriched (Miltenyi Biotec) to >95% purity and cultured in DMEM media on plates pre-coated with anti-CD3 and anti-CD28 antibodies (clones 145-2C11 and 37.51; BioXCell). Culture media was supplemented with 10 μg/mL anti-IL-4 (clone 11B11; BioXCell), anti-IL-12 (clone C17.8; BioXCell), and anti-IFNγ (clone XMG1.2; BioXCell) as well as TGFβ (2 ng/mL; PeproTech). HG-9-91-01 (100 nM) or DMSO were added at day 0. Cultures were fed with DMEM+IL-2 (10 ng/mL, Peprotech) containing small molecules at day 2 and analyzed at day 4. Cells were stained with blue LIVE/DEADAqua stain (Invitrogen) to discriminate live cells, fixed with Foxp3 Permeabilization Buffer (eBioscience), stained with FITC anti-CD4 (clone RM4-5, Biolegend) and PE anti-Foxp3 (clone FJK-16S, eBioscience) and acquired on a FACSVerse (BD Biosciences). For Th0 and Tr1 differentiations, C57BL/6 mice were euthanized and splenic CD4+CD62L+ T cells were magnetically enriched (Miltenyi Biotec) to >95% purity and cultured in DMEM media on plates pre-coated with anti-CD3 and anti-CD28 antibodies (clones 145-2C11 and 37.51; BioXCell) in the absence of neutralizing antibodies. For Tr1 differentiations, the culture media was supplement with TGFβ (2 ng/mL; PeproTech) and rIL-27 (25 ng/mL; R&D Systems) as described previously (Gagliani N, et al. (2013) Coexpression of CD49b and LAG-3 identifies human and mouse T regulatory type 1 cells. Nature medicine 19(6):739-746). After 4 days, cells were harvested, washed in PBS and stained with LIVE/DEADGreen to discriminate viable cells and eFluor450 anti-CD4 (BioLegend) and acquired on a FACSVerse (BD Biosciences). Absolute cell numbers were enumerated by adding 5000 […] beads (Spherotech) to each well. Analysis was performed using Flowjo (Treestar) excluding samples were significant toxicity was observed. For all differentiation conditions, IL-10 levels were quantified in the culture media at day 4 by ELISA (BD Biosciences).

Series [2] concerns CD11c+ CX3CR1hi myeloid cells and CD11c+ CX3CR1− DCs from the small intestine. As to the kind of experiment: Cytokine production by lamina propria gut myeloid cells. The settings on record: 0.3 μM, 30 min pre-treatment. On the procedure:
as §1, §2
CX3CR1GFP/+ mice were euthanized and intestines cut into 3-4 pieces before inversion onto polyethylene tubes (Becton Dickinson). Intestinal fragments were washed with calcium- and magnesium-free PBS (Lonza), and mucus was removed with 1 mM DTT. […]

For the molecule `COc1ccc(N(C(=O)Nc2c(C)cccc2C)c2cc(Nc3ccc(N4CCN(C)CC4)cc3)ncn2)c(OC)c1` [HG-9-91-01], in the series on BMDCs (BMDCs pre-treated, LPS, R848 or zymosan 18 hr), the IL-10 secretion entry is “similarly induced”. The IL-1β production result in the series with BMDCs (BMDCs, stimulation with R848 or zymosan) is “suppressed”. In addition, in the series on BMDCs (BMDCs, versus PGE2, regardless of activating stimuli), the “production of IL-12p40 and TNF-α” value is given as “suppressed to a significantly greater extent”. Moreover, the “fraction of Foxp3+ cells and IL-10 secretion of Treg's” value in series [1] (100 nM, 4 days) is “did not increase the fraction of Foxp3^+ cells or promote IL-10 secretion”. Moreover, the “concentrations toxic in Treg's and Tr1 cells” value in series [1] (4 days differentiation) is on record as “greater than 0.5 μM”. The “IL-10 secretion by Tr1 cells” value in series [1] (non-toxic concentrations, 4 days) is “not further enhanced”. For the same molecule, the “IL-10 production by CD11c+ CX3CR1hi cells” value in series [2] (LPS or zymosan 18 hr) is “enhanced IL-10 production”. Moreover, in series [2] (both subsets), the “secretion of TNF-α by gut myeloid cell subsets” value is reported as “reduced secretion of TNF-α”. Moreover, in series [2] (either subset), the “production of IL-6 or RANTES by gut myeloid cell subsets” value is “not affected”.
